In patent EP0233173A1, “1-[3-(2-Hydroxy-3-alkylamino-propoxy)-2-thienyl]-3-phenyl-1-propanones and their acid addition salts, process for their preparation and pharmaceutical compositions containing them” (Laevosan-Gesellschaft m.b.H., priority 1986, dated 1987):

Columns and labels:
[1] = test system: isolierte linke Meerschweinchenvorhof; assay: Isolated, electrically stimulated left guinea pig atrium: refractory period, contraction force and excitability; type: cell-based, Meerschweinchen; settings: for inhibition at 100 µM / inhibition at 10 µM: Cavia porcellus, read-out: Hemmung der Kontraktionskraft; for inhibition at 10 µM / percent prolongation of refractory period at 10 µM / Hemmung der Kontraktionskraft / Verlängerung der RP: concentration not given; for ERP / EKK: ratio of prolongation of RP to inhibition of contraction force
Description: Für das Screening wurde […]. Die Vorhöfe wurden durch Rechteckimpulse ( ∼ 3 msec) mit einer Basisfrequenz von 2 Hz […]. Nun wurde mittels eines Extrastimulus, dessen […] und ohne Verbindung bestimmt. […] Um zwischen Na-antagonistischen und anderen Wirkungen unterscheiden zu […] RP, die Kontraktionskraft und die Erregbarkeit des […] untersucht.

[2] = test system: teilweise depolarisierten Papillarmuskel; assay: Partially depolarised papillary muscle (extracellular potassium raised about 4-fold): mechanism of the negative inotropic effect; type: cell-based; settings: partially depolarised membranes; cause of the negative inotropic effect; result in words
Description: Weitere Untersuchungen wurden am teilweise depolarisierten Papillarmuskel durchgeführt, um zwischen der negativ inotropen Wirkung, welche auf Blockade der schnellen Na⁺-Kanälchen und einer, die auf anderen Mechanismen beruht, zu unterscheiden. Im Versuch wurde die teilweise Depolarisation der Herzmuskelzellmembran durch Erhöhung der extrazellulären Kalium-Konzentration auf das ca. 4-fache erreicht.

[3] = 100 µM, atrium stimulated at 2 Hz, mean ± spread, read-out: Verlängerung der RP
[4] = 100 µM, atrium stimulated at 2 Hz, mean ± spread
[5] = 10 µM according to b47, atrium stimulated at 2 Hz, mean ± spread
[6] = 10 µM according to b47, atrium stimulated at 2 Hz, mean ± spread, read-out: Verlängerung der RP

Compound | inhibition at 100 µM [1, 4] | inhibition at 10 µM [1, 5] | percent prolongation of refractory period at 10 µM [1, 6] | ERP / EKK ([1]; 10 µM according to b47) | Hemmung der Kontraktionskraft [1, 5] | Verlängerung der RP [1, 5] | also measured
C=C[C@H]1CN2CC[C@H]1C[C@@H]2[C@@H](O)c1ccnc2ccc(OC)cc12 [Chinidin, reference compound] | 77 ± 4% | – | – | – | – | – | activation at 100 µM [1, 3]: > 161%
CCC(C)(C)NCC(O)COc1c(C)csc1C(=O)CCc1ccccc1.Cl (stereo not drawn) [LG 84-6-07, 1-[3-(2-Hydroxy-3-tert.pentylaminopropoxy)-4-methyl-2-thienyl]-3-phenyl-1-propanon-hydrochlorid] | – | 52 ± 4% | 66 ± 13% | 1,3 | – | – | negativ incorope Komponente [2]: nur durch den Na⁺-Antagonismus hervogerufen; Verhältnis zwischen der Verlängerung der Refraktärperiode und der gleichzeitig beobachteten Kontraktionskraftsenkung ([1]; comparison among the tested antiarrhythmics, result in words): am größten; Dosen für Verlängerung der Refraktärperiode gegenüber Senkung der Kontraktionskraft ([1]; doses for prolonging the refractory period compared with doses for lowering contraction force, result in words): mit wesentlich kleineren Dosen erzielt; Erregbarkeit des Vorhofes ([1]; result in words): Verminderung der Erregbarkeit des Vorhofes
CCN(CC)CC(=O)Nc1c(C)cccc1C [Lidocain, reference compound] | 17 ± 5% | – | – | – | – | – | percent prolongation of refractory period at 100 µM [1, 3]: 63 ± 6%; ERP / EKK ([1]; 100 µM): 3,7
Cc1csc(C(=O)CCc2ccccc2)c1OCC(O)CNCC(C)(C)C.Cl (stereo not drawn) [LG 84-6-09, 1-[3-(2-Hydroxy-3-(2,2-dimethylpropylamino)-propoxy)-4-methyl-2-thienyl]-3-phenyl-1-propanon-hydrochlorid] | – | 37 ± 4.5% | 112 ± 18% | 3,0 | – | – | –
1-[4-Methyl-3-(2-hydroxy-3-sek.butylaminopropoxy)-2-thienyl]-3-phenyl-1-propanon-chlorhydrat [LG 84-6-08] | – | – | – | 2,0 | 65 ± 4,0% | 129 ± 11,0% | –
1-[3-(2-Hydroxy-3-(4-methyl)-1-piperidinyl)-propoxy)-4-methyl-2-thienyl]-3-phenyl-1-propanon-hydrochlorid [LG 84-6-11] | – | – | – | 2,7 | 59 ± 3,3% | 157 ± 10,0% | –
